Data set [1] addresses T1, σ1 receptor (Cavia porcellus, UniProt Q60492).
T1 construct: The membranes were prepared from guinea pig brain (minus cerebellum) as described above; from tissue; host or cells: guinea pig brain (minus cerebellum) membranes
The data set can be described thus: Sigma-1 receptor competition binding assay with [3H]-(+)-pentazocine. More on the design: species or system guinea pig. The conditions noted are these: apparent Ki (Cheng-Prusoff), brain membranes. The protocol: The in vitro σ1 receptor binding affinities of rhenium coordinated complexes were determined in a competition assay using […] and high-affinity σ1 ligand [3H]-(+)-pentazocine (28 Ci/mmol, NEN Life Science Inc., Cambridge, Mass.). See, Mol. Neuropharmacol. 1993, 3, 117-126.
The membranes were prepared from guinea pig brain (minus cerebellum) as described above and stored at −70 ° C. Twelve concentrations of the nonradioactive rhenium complexes ranging from 1×10^−11 to 1×10^−3 and protein samples (0.15 mg of membrane protein) were incubated with […] [3H]-(+)-pentazocine in a total volume of 0.25 mL of Tris-HCl (50 mM, pH 8.0). Incubations were carried out for 120 min at 25° C. All assays were terminated by dilution with 5 mL of ice-cold Tris-HCl (10 mM), pH 8.0, and solution were filtered through glass-fiber filters (Whatman GF/F; presoaked in 0.5% polyethyleneimine for 30 min at 25° C.). Filters were then washed three times with 5 mL of ice-cold Tris-HCl (50 mM, pH 8.0), and counted in Hionic-Fluor cocktail (Packard, Groningen, the Netherlands). The corresponding IC50 values were determined with Origin 6.0 software (OriginLab, Northampton, Mass.) and were used for the calculation of the apparent Ki values with the Cheng-Prusoff equation. See, Biochem. Pharmacol. 1973, 22, 3099-3108.

The target in data set [2] is T2, σ2 receptor (Rattus norvegicus, UniProt Q5U3Y7).
T2 construct: Rat liver membranes were prepared from male Sprague-Dawley rat livers as previously described; from tissue; host or cells: male Sprague-Dawley rat liver membranes
T2 sequence (Q5U3Y7 1-176): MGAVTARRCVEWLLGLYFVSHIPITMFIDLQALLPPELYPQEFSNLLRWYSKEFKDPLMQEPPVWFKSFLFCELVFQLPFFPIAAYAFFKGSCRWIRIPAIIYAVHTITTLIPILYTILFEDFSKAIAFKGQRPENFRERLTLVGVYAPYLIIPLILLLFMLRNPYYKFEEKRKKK
The data set can be described thus: σ2 receptor competition binding assay with [3H]-DTG, σ1 masked. The conditions noted are these: apparent Ki, rat liver membranes. How it is done:
Rat liver membranes were prepared from male Sprague-Dawley rat livers as previously described (Eur. J. Pharmacol.—Mol. Pharmacol. Sect. 1994, 268, 9-18). The in vitro σ2 receptor binding affinities of rhenium coordinated complexes were determined in a competition assay using rat livers and [^3H]-DTG (31 Ci/mmol, NEN Life Science Inc., Cambridge, Mass.) as radioligand in the presence of 10 μM 1-pyrrolidinylethyl 3,4-dichlorophenylacetate oxalate (ACT915 oxalate) to mask σ1 receptors (Bioorg. & Med. Chem. Lett. 2000, 10, 17-18). Competition assays were performed with twelve concentrations of the nonradioactive rhenium complexes ranging from 1×10^−10 to 1×10^−3 and protein samples (0.15 mg of membrane protein) in a total volume of 0.25 mL of Tris-HCl (50 mM, pH 8.0) for 120 min at 25° C. All other manipulations and data analysis were performed as described vide supra for the σ1-receptor assays.

The target of data set [3] is α1 receptor. The data set can be described thus: Alpha-1 receptor competition binding assay with [3H]-Prazosin. The following applies: apparent Ki, rat frontal cortex. How it is done: The in vitro α1 receptor binding affinities of rhenium coordinated complexes were determined in a competition assay using rat frontal cortex and high-affinity α1 ligand [^3H]-Prazosin (80 Ci/mmol, NEN Life Science Inc., Cambridge, Mass.). See, Eur. J. Nucl. Med. 2002, 29, 82-87.
The frontal cortex of rat brain was prepared as described above and store at −70° C. until used in the binding assays. Ten concentrations of the nonradioactive rhenium complexes ranging from 1×10^−10 to 1×10^−3 and protein samples (0.15 mg of membrane protein) were incubated with 1.5 nM [^3H]-Prazosin in a total volume of 0.25 mL of Tris-HCl (50 mM, pH 7.4, 10 mM MgSO4). Incubations were carried out for 60 min at 25° C. All assays were terminated by dilution with 5 mL of ice-cold Tris-HCl (10 mM), pH 7.4, and solution were filtered through glass-fiber filters (Whatman GF/F; presoaked in 0.5% polyethyleneimine for 30 min at 25° C.). Filters were then washed three times with 5 mL of ice-cold Tris-HCl (50 mM, pH 7.4), and counted in Hionic-Fluor cocktail (Packard, Groningen, the Netherlands). The corresponding IC50 values were determined with Origin 6.0 software (OriginLab, Northampton, Mass.) and were used for the calculation of the apparent Ki values with the Cheng-Prusoff equation. See, Biocheni. Pharmacol. 1973, 22, 3099-3108.

A short description of data set [4]: Determination of lipophilicity and pKa values by HPLC. Type of data set: physicochemical. The protocol:
The lipophilicity and pKa values of all complexes were determined using HPLC methods described previously (Stylli, C.; Theobald, A. E. Determination of Ionization Constants of Radiopharmaceuticals in Mixed Solvents by HPLC. Appl. Radiat. Isot., 1987, 38, 701-708; Johannsen, B.; Scheunemann, M.; Spies, H.; Brust, P.; Wober, J.; Syhre, R.; Pietzsch, H.-J. Technetium(V) and Rhenium(V) Complexes for 5-HT2A Serotonin Receptor Binding: Structure-Affinity Considerations. Nucl. Med. Biol., 1996, 23, 429-438; and Johannsen, B.; Berger, R.; Brust, P.; Pietzsch, H.-J.; Scheunemann, M.; Seifert, S.; Spies, H.; Syhre, R. Structural Modification of Receptor-Binding Technetium-99m Complexes in Order to Improve Brain Uptake. Eur. J. Nucl. Med. 1997, 24, 316-319). […] The mobile phase was acetonitrile:phosphate buffer (0.01 M), 3:1, v/v, with the aqueous buffer adjusted to the desired pH between 3 and 11. The capacity factor (k′) was calculated for each determination (Braumann, T.; Grimme, L. H. Determination of Hydrophobic Parameters for Pyridazinone Herbicides by Liquid-Liquid Partition and Reversed-Phase High-Performance Liquid Chromatography. J. Chromatogr. 1981, 206, 7-15; El Tayer, N.; van der Waterbeemd, H.; Testa, B. Lipophilicity Measurements of Protonated Basic Compounds by Reversed-Phase High-Performance Liquid Chromatography. II. Procedure for the Determination of a Lipophilic Index Measured by Reversed-Phase High Performance Liquid Chromatography. J. Chromatogr. 1985, 320, 305-312; and Minick, D. J.; Frenz, J. H.; Patrick, M. A.; Brent, D. A. A Comprehensive Method for Determining Hydrophobicity Constants by Reversed-Phase High-Performance Liquid Chromatography. J. Med. Chem., 1988, 31, 1923-1933) and the partition coefficient at a given pH (D or logD) were calculated from the equation: log D=a log k′+b where the parameters a and b are predetermined using standard amines. The fitted points of inflection from the sigmoidal DHPLC/pH profiles permit calculation of the pKHPLC(Stylli, C.; Theobald, A. E. Determination of Ionization Constants of Radiopharmaceuticals in Mixed Solvents by HPLC. Appl. Radiat. Isot., 1987, 38, 701-708). The aqueous ionization constants pKa were calculated from the pKHPLC values after correction with a predetermined correction factor obtained using standard amine compounds. Log P values of the neutral complexes were estimated from the respective upper plateau of the sigmoidal log D/pH curve in the alkaline range.

The subject of data set [5] is DU145 human prostate carcinoma. The data set can be described thus: In-vivo tumor uptake / biodistribution, DU145 tumor-bearing nude mice. The conditions noted are these: 1 h. The protocol: (§1) To study the tumor uptake of radiolabeled metal complexes, in vivo, biodistribution experiments at 1 h after their administration were carried out in C57B16 male mice with palpable B16 melanoma nodules and male nude mice bearing DU145 human prostate carcinoma in the hind limb.
(§2) The biodistribution data including tumor/nontumor (T/NT) ratios for selected organs are summarized in Table 1 and 2 as percentage injected dose per gram (% ID/g).

Data set [6] relates to B16 melanoma. The data set can be described thus: In-vivo tumor uptake / biodistribution, B16 melanoma-bearing mice. The conditions noted are these: 1 h, B16/F0 melanoma mice. How it is done:
as §1, §2

T1 sequence (Q60492 whole entry): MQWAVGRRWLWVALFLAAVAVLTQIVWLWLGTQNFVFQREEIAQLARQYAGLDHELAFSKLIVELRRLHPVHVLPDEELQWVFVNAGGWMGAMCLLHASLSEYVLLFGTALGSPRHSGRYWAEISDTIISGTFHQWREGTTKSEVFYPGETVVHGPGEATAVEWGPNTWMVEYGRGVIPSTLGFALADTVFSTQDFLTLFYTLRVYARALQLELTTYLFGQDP

For the compound `O=C(CN1CC[S][Re]2(=[O])[S]CC[N]2C(=O)C1)NC1CCN(Cc2ccccc2)CC1` (stereo not shown) [Re-22], the Ki was determined as 5510 nM in data set [1] and 4710 ± 986 nM in data set [2].
Turning to `O=C1CN(CCCN2CCC(O)(c3ccc(Cl)cc3)CC2)CC[S][Re]2(=[O])[S]CC[N]12` (stereo not shown) [Re-18], the Ki in data set [1] is 2960 nM; in data set [2], 528 ± 111 nM; in data set [3] it was 980 ± 180 nM. The “k' (pH = 7.4)” value in data set [4] (HPLC capacity factor at pH 7.4) was found to be 29.7. Besides, the “k' (Max)” value in data set [4] (HPLC capacity factor, maximum) turned out to be 37.5. In addition, the “pKa (Corrected)” value in data set [4] (HPLC method, corrected with standard amines) is given as 7.26.
As for `O=C1CN(CCCN2CCC(Cc3ccccc3)CC2)CC[S][99Tc]2(=[O])[S]CC[N]12` (stereo not shown) [Re 99mTc-15], the figures for the Tumor/Blood ratio in data set [5] and in data set [6] were 7.93 and 7.47, respectively. Further, the Tumor/Liver ratio in data set [5] and in data set [6] was 0.21 throughout. Also, the Tumor/Lung ratio in data set [5] amounted to 0.25; in data set [6], 0.31. In addition, the Tumor/Muscle ratio in data set [5] worked out at 2.33; in data set [6] it was 3.57. In addition, the results for the “Blood %ID/g” value in data set [5] (blood) and in data set [6] (blood) were 0.31 %ID/g and 0.44 %ID/g, respectively. The “Brain %ID/g” value in data set [5] (brain) worked out at 0.51 %ID/g; in data set [6] (brain), 0.48 %ID/g. The “Heart %ID/g” value in data set [5] (heart) was 1.82 %ID/g; in data set [6] (heart) it was 1.87 %ID/g. The “Intestine %ID/g” value in data set [5] (intestine) is on record as 20.94 %ID/g; in data set [6] (intestine), 14.38 %ID/g. In addition, the “Kidney %ID/g” value in data set [5] (kidney) came to 7.92 %ID/g; in data set [6] (kidney), 7.66 %ID/g. The “Liver %ID/g” value in data set [5] (liver) turned out to be 12.06 %ID/g; in data set [6] (liver), 10.23 %ID/g. For the same compound, the “Lung %ID/g” value is listed as 9.96 %ID/g in data set [5] (lung) and 15.60 %ID/g in data set [6] (lung). In addition, the “Muscle %ID/g” value was found to be 1.06 %ID/g in data set [5] (muscle) and 0.90 %ID/g in data set [6] (muscle). Moreover, the “Skin %ID/g” value was determined as 1.76 %ID/g in data set [5] (skin) and 1.21 %ID/g in data set [6] (skin). Besides, the “Spleen %ID/g” value in data set [5] (spleen) was determined as 7.56 %ID/g; in data set [6] (spleen) it was 5.95 %ID/g. For the same compound, the “Stomach %ID/g” value in data set [5] (stomach) worked out at 5.26 %ID/g; in data set [6] (stomach) it was 6.81 %ID/g. In addition, the figures for the “Tumor %ID/g” value in data set [5] (tumor) and in data set [6] (tumor) were 2.46 %ID/g and 3.18 %ID/g, respectively.
